Molecular target: T1, recombinant human GR (Homo sapiens, UniProt P04150)
T1 construct: purchased Panvera/Invitrogen P2812 (kit P2893)
T1 sequence (P04150 1-777): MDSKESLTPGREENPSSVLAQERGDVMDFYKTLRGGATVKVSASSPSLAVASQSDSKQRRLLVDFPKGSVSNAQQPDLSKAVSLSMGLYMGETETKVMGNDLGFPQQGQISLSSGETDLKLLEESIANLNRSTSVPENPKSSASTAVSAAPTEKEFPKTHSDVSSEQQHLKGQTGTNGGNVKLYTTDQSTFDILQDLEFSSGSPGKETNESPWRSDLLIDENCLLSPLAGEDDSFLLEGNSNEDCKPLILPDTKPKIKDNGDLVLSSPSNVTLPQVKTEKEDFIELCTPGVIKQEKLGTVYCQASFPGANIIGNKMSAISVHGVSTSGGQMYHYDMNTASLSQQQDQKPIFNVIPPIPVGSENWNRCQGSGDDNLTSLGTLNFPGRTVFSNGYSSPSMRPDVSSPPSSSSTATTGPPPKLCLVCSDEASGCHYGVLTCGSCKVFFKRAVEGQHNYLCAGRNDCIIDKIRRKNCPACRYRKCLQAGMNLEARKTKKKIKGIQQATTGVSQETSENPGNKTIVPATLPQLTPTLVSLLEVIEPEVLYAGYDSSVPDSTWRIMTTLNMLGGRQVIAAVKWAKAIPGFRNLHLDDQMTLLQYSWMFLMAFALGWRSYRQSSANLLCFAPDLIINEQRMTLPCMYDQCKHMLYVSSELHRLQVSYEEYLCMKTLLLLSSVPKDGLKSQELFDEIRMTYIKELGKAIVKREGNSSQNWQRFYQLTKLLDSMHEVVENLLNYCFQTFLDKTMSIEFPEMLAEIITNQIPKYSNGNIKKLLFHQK
Assay: Human Glucocorticoid Receptor (GR) Assay (fluorescence polarization, Panvera/Invitrogen kit)
Details: GS Red tracer, 2 hours at room temperature, 100% control 10 μM Dexamethasone, read-out: Inhibition of GR binding, IC50
Description: Human Glucocorticoid Receptor (GR) Assay The assay is based on a commercial kit from Panvera/Invitrogen (Part number P2893). The assay technology is fluorescence polarization. The kit utilises recombinant human GR (Panvera, Part number P2812), a Fluoromone™ labelled tracer (GS Red, Panvera, Part number P2894) and a Stabilizing Peptide 10× (Panvera, Part number P2815). The GR and Stabilizing Peptide reagents are stored at −70° C. while the GS Red is stored at −20° C. Also included in the kit are 1M DTT (Panvera, Part number P2325, stored at −20° C.) and GR Screening buffer 10× (Panvera, Part number P2814, stored at −70° C. initially but once thawed stored at room temperature). Avoid repeated freeze/thaws for all reagents. The GR Screening buffer 10× comprises 100 mM potassium phosphate, 200 mM sodium molybdate, 1 mM EDTA and 20% DMSO. Test compounds (1 μL) and controls (1 μL) in 100% DMSO were added to black polystyrene 384-well plates (Greiner low volume black flat-bottom, part number 784076). 0% control was 100% DMSO and 100% control was 10 μM Dexamethasone. Background solution (8 μL; assay buffer 10×, Stabilizing Peptide, DTT and ice cold MQ water) was added to the background wells. GS Red solution (7 μL; assay buffer 10×, Stabilizing Peptide, DTT, GS Red and ice cold water) was added to all wells except background wells. GR solution (7 μL; assay buffer 10×, Stabilizing Peptide, DTT, GR and ice cold water) was added to all wells. The plate was sealed and incubated in a dark at room temperature for 2 hours. The plate was read in an Analyst plate reader (LJL Biosystems/Molecular Devices Corporation) or other similar plate reader capable of recording fluorescence polarization (excitation wavelength 530 nm, emission wavelength 590 nm and a dichroic mirror at 561 nm).

SMILES	IC50 [nM]
CCC[C@H]1O[C@@H]2C[C@H]3[C@@H]4CCC5=Cc6c(cnn6-c6ccc(F)c(CO)c6)C[C@]5(C)[C@H]4[C@@H](O)C[C@]3(C)[C@]2(C(=O)CO)O1 [Example 17, 1-[(4aR,4bS,5S,6aS,6bS,8S,9aR,10aS,10bS)-1-[4-Fluoro-3-(hydroxymethyl)phenyl]-5-hydroxy-4a,6a-dimethyl-8-propyl-4,4a,4b,5,6,6a,9a,10,10a,10b,11,12-dodecahydro[1,3]dioxolo[3′,4′]cyclopenta[1′,2′:5,6]naphtho[1,2-f]indazol-6b(1H)-yl]-2-hydroxyethanone]	6.6
CC1(C)O[C@@H]2C[C@H]3[C@@H]4C=CC5=Cc6c(cnn6-c6ccc(F)cc6)C[C@]5(C)[C@H]4[C@@H](O)C[C@]3(C)[C@]2(C(=O)CO)O1 [Example 24, 1-[(4aR,4bS,5S,6aS,6bS,9aR,10aS,10bS)-1-(4-Fluorophenyl)-5-hydroxy-4a,6a,8,8-tetramethyl-4,4a,4b,5,6,6a,9a,10,10a,10b-decahydro[1,3]dioxolo[3′,4′]cyclopenta-[1′,2′:5,6]naphtho[1,2-f]indazol-6b(1H)-yl]-2-hydroxyethanone]	3.8
CCC[C@H]1O[C@@H]2C[C@H]3[C@@H]4CCC5=Cc6c(cnn6-c6ccc(F)c(CN7CCC(CO)CC7)c6)C[C@]5(C)[C@H]4[C@@H](O)C[C@]3(C)[C@]2(C(=O)CO)O1 [Example 14, 1-[(4aR,4bS,5S,6aS,6bS, 8S,9aR,10aS,10bS)-1-(4-fluoro-3-{[4-(hydroxymethyl)-piperidin-1-yl]methyl}phenyl)-5-hydroxy-4a,6a-dimethyl-8-propyl-4,4a,4b,5,6,6a,9a,10, 10a,10b,11,12-dodecahydro[1,3]dioxolo [3′,4′]cyclopenta [1′,2′:5,6]naphtho[1,2-f]indazol-6b(1H)-yl]-2-hydroxyethanone trifluoroacetic acid]	47
CCC[C@@H]1O[C@@H]2C[C@H]3[C@@H]4CCC5=Cc6c(cnn6-c6ccc(F)cc6)C[C@]5(C)[C@H]4[C@@H](O)C[C@]3(C)[C@]2(C(=O)CO)O1 [Example 18, 1-[(4aR,4bS,5S,6aS,6bS,8R,9aR,10aS,10bS)-1-(4-Fluorophenyl)-5-hydroxy-4a,6a-dimethyl-8-propyl-4,4a,4b,5,6,6a,9a,10,10a,10b,11,12-dodecahydro[1,3]dioxolo[3′,4′]-cyclopenta[1′,2′:5,6]naphtho[1,2-f]indazol-6b(1H)-yl]-2-hydroxyethanone]	2.3
CCC[C@@H]1O[C@@H]2C[C@H]3[C@@H]4CCC5=Cc6c(cnn6-c6ccc(F)c(CNCCO)c6)C[C@]5(C)[C@H]4[C@@H](O)C[C@]3(C)[C@]2(C(=O)CO)O1 [Example 15, 1-[(4aR,4bS,5S,6aS,6bS, 8R,9aR,10aS,10bS)-1-(4-fluoro-3-{[(2-hydroxyethyl)amino]-methyl}phenyl)-5-hydroxy-4a,6a-dimethyl-8-propyl-4,4a, 4b,5,6,6a,9a,10,- 10a,10b,11,12-dodecahydro [1,3]dioxolo-[3′,4′]cyclopenta[1′,2′:5,6]naphtho[1,2-f]indazol-6b(1H)-yl]-2-hydroxyethanone trifluoroacetic acid]	42
CCC[C@@H]1O[C@@H]2C[C@H]3[C@@H]4CCC5=Cc6c(cnn6-c6ccc(F)c(CNCCCO)c6)C[C@]5(C)[C@H]4[C@@H](O)C[C@]3(C)[C@]2(C(=O)CO)O1 [Example 11, 1-[(4aR,4bS,5S,6aS,6bS, 8R,9aR,10aS,10bS)-1-(4-fluoro-3-{[(3-hydroxypropyl)amino]methyl}phenyl)-5-hydroxy-4a,6a-dimethyl-8-propyl-4,4a,4b,5,6,6a,9a,10, 10a,10b,11,12-dodecahydro[1,3]dioxolo [3′,4′]cyclopenta [1′,2′:5,6]naphtho[1,2-f]indazol-6b(1H)-yl]-2-hydroxyethanone trifluoroacetic acid]	34
CC1(C)O[C@@H]2C[C@H]3[C@@H]4CCC5=Cc6c(cnn6-c6ccc(F)cc6)C[C@]5(C)[C@H]4[C@@H](O)C[C@]3(C)[C@]2(C(=O)CO)O1 [Example 20, 1-[(4aR,4bS,5S,6aS,6bS,9aR,10aS,10bS)-1-(4-Fluorophenyl)-5-hydroxy-4a,6a,8,8-tetramethyl-4,4a,4b,5,6,6a,9a,10,10a,10b,11,12-dodecahydro[1,3]dioxolo-[3′,4′]cyclopenta[1′,2′:5,6]naphtho[1,2-f]indazol-6b(1H)-yl]-2-hydroxyethanone]	1.3

The remaining compounds from weak to strong by IC50, led by results:

IC50 [nM]	SMILES
37	CCC[C@@H]1O[C@@H]2C[C@H]3[C@@H]4CCC5=Cc6c(cnn6-c6ccc(F)c(CN7CCCC7)c6)C[C@]5(C)[C@H]4[C@@H](O)C[C@]3(C)[C@]2(C(=O)CO)O1 [Example 3, 1-[(4aR,4bS,5S,6aS,6bS, 8R,9aR,10aS,10bS)-1-[4-fluoro-3-(pyrrolidin-1-ylmethyl)phenyl]-5-hydroxy-4a,6a-dimethyl-8-propyl-4,4a,4b,5,6,6a,9a,10, 10a,10b,11,12-dodecahydro[1,3]dioxolo [3′,4′]cyclopenta [1′,2′:5,6]naphtho[1,2-f]indazol-6b(1H)-yl]-2-hydroxyethanone]
21	CCC[C@@H]1O[C@@H]2C[C@H]3[C@@H]4CCC5=Cc6c(cnn6-c6ccc(F)c(CN7CCN(C)CC7)c6)C[C@]5(C)[C@H]4[C@@H](O)C[C@]3(C)[C@]2(C(=O)CO)O1 [Example 4, 1-[(4aR,4bS,5S,6aS,6bS, 8R,9aR,10aS,10bS)-1-{4-fluoro-3-[(4-methylpiperazin-1-yl)methyl]phenyl}-5-hydroxy-4a,6a-dimethyl-8-propyl-4,4a,4b,5,6,6a,9a,10, 10a,10b,11,12-dodecahydro[1,3]dioxolo [3′,4′]cyclopenta [1′,2′:5,6]naphtho[1,2-f]indazol-6b(1H)-yl]-2-hydroxyethanone trifluoroacetic acid]
21	CCC[C@@H]1O[C@@H]2C[C@H]3[C@@H]4CCC5=Cc6c(cnn6-c6ccc(F)c(CN7CCC(O)CC7)c6)C[C@]5(C)[C@H]4[C@@H](O)C[C@]3(C)[C@]2(C(=O)CO)O1 [Example 9, 1-[(4aR,4bS,5S,6aS,6bS, 8R,9aR,10aS,10bS)-1-{4-fluoro-3-[(4-hydroxypiperidin-1-yl)methyl]phenyl}-5-hydroxy-4a,6a-dimethyl-8-propyl-4,4a,4b,5,6,6a,9a,10, 10a,10b,11,12-dodecahydro[1,3]dioxolo [3′,4′]cyclopenta [1′,2′:5,6]naphtho[1,2-f]indazol-6b(1H)-yl]-2-hydroxyethanone trifluoroacetic acid]
8	CCC[C@@H]1O[C@@H]2C[C@H]3[C@@H]4CCC5=Cc6c(cnn6-c6ccc(F)c(CN7CCOCC7)c6)C[C@]5(C)[C@H]4[C@@H](O)C[C@]3(C)[C@]2(C(=O)CO)O1 [Example 1, 1-[(4aR,4bS,5S,6aS,6bS,8R,9aR,10aS,10bS)-1-[4-fluoro-3-(morpholin-4-ylmethyl)phenyl]-5-hydroxy-4a,6a-dimethyl-8-propyl-4,4a,4b,5,6,6a,9a,10,10a,10b,11,12-dodecahydro[1,3]-dioxolo[3′,4′]cyclopenta-[1′,2′:5,6]naphtho[1,2-f]indazol-6b(1H)-yl]-2-hydroxyethanone trifluoroacetic acid]
2.7	CCC[C@H]1O[C@@H]2C[C@H]3[C@@H]4CCC5=Cc6c(cnn6-c6ccc(F)cc6)C[C@]5(C)[C@H]4[C@@H](O)C[C@]3(C)[C@]2(C(=O)CO)O1 [Example 19, 1-[(4aR,4bS,5S,6aS,6bS,8S,9aR,10aS,10bS)-1-(4-Fluorophenyl)-5-hydroxy-4a,6a-dimethyl-8-propyl-4,4a,4b,5,6,6a,9a,10,10a,10b,11,12-dodecahydro[1,3]dioxolo-[3′,4′]cyclopenta[1′,2′:5,6]naphtho[1,2-f]indazol-6b(1H)-yl]-2-hydroxyethanone]

Reference: patent US20110160167A1, “Steroid Derivatives Acting As Glucocorticosteroid Receptor Agonists” (AstraZeneca AB, priority 2007, published 2011)
